# Laboratory results as given in patent publication US20160025704A1, “METHODS FOR IDENTIFYING NEUROPROTECTIVE PKC ACTIVATORS” (priority 2013, published 2016).
# Tests used:
# [1] = Internal toxicity study: Clinical Chemistry Panel & Hematology Panel; assay type: in vivo
# Protocol: Internal tests measuring various biological markers were performed 24 hours after administering a PKC activator (bryostatin, cyclopropanated arachidonic acid, DCPLA, and DHACP6) at 10× the therapeutic dose. The results are shown below in Tables 5-7.
# HuC and HuD proteins = experiment: Dendritic spines, presynaptic vesicles and HuC/HuD nuclear export in healthy rats after water maze training; assay type: in vivo; details: 10 μg/kg body weight intraperitoneal, 3 doses every other day; two days after 6-days of training
# Protocol: Protocol: Non-diseased, healthy brown Norway rats (at 4-5 months old) were used in this study. Two days after 6-days of training, increases in dendritic spines (a, b) and presynaptic vesicle concentration (a, d) within unchanged axonal bouton density (a, c) were correlated with an increase in the nuclear export of HuC and HuD proteins into the dendritic shaft as compared with naive and swim controls (a, e). Those changes were enhanced with bryostatin treatment (10 μg/kg body weight, intraperitoneal injection, 3 doses every other day). Nv=naîve controls; Sw=swim controls; Mz=water maze treatment; and Mz/Br=water maze treatment plus bryostatin treatment).
# alpha-secretase = details: human fibroblasts; Etcheberrigaray et al. 2004; cited from earlier work
# Human primary neurons = experiment: ASPD-induced apoptosis in human primary neurons (Annexin-V Fluorescein); assay type: cell-based; details: 0.27 nM with 100 nM ASPD, 24 hours
# Protocol: Protocol: Human primary neurons were grown on chambered slides and treated with vehicle (Control), 100 nM ASPD, ASPD+DCPLA-ME (100 nM), ASPD+bryostatin 1 (0.27 nM) and ASPD+DCPLA-ME (100 nM) or ASPD+bryostatin 1 (0.27 nM) in presence of PKC-ε inhibitor. Following 24 hours of incubation, cells were stained using Annexin-V Fluorescein to detect apoptotic cells and results are shown in FIG. 10 below. […] Data are mean±SEM of three independent experiments. (*p<0.05;** p<0.005 and *** p<0.0005).
# human neprilysin = experiment: Membrane localization of neprilysin in SH+hNEP cells (biotinylation, Western blot); assay type: cell-based; details: 1 nM
# Protocol: Protocols: SHSYSY cells overexpressing human neprilysin (SH+hNEP cells) were incubated with 1 μM oligomeric Aβ(1-42) for 4 hours in the absence or presence of bryostatin (Bryo, 1 nM). Some cells were pre-treated with Ro 32-0432 (Ro, 2 μM, a PKC inhibitor) for 30 min and then treated with Bryo. Cell surface-located proteins were then biotinylated and extracted using streptavidin beads, followed by immunoprecipitation using a neprilysin antibody Immunoprecipitates were subjected to Western blot analysis using neprilysin antibody (Mean+SEM of three independent experiments, **P<0.01, Aβ compared with untreated; #P<0.01, Ro+Bryo compared with Bryo). Results are shown below in FIG. 17.
# Protocol: After SH+hNEP cells were untreated or treated with bryostatin (Bryo, 1 nM), or pre-treated with PKC inhibitor Ro 32-0432 (Ro, 2 μM) for 30 min and then treated with Bryo for 1 hour, cell surface located proteins were biotinylated and pulled down using streptavidin beads, followed by immunoprecipitation using a neprilysin antibody. […] Cells were then lysed and neprilysin activity was measured. […] Further incubation with leucine aminopeptidases released free 4-methoxy-2-naphthylamide that was measured fluorometrically at an emission of 425 nm. […]
# [2] = i.v. 150 μg/m^2 = 10 × Therapeutic Dose, 24 hours, normalized to Control
# [3] = i.v. 150 μg/m^2 = 10 × Therapeutic Dose, 24 hours, normalized to Normal
compound,measurement,setting,value
"CCC/C=C/C=C/C(=O)O[C@H]1/C(=C/C(=O)OC)C[C@H]2C[C@H]([C@@H](C)O)OC(=O)C[C@H](O)C[C@@H]3C[C@H](OC(C)=O)C(C)(C)[C@](O)(C[C@@H]4C/C(=C/C(=O)OC)C[C@H](/C=C/C(C)(C)[C@]1(O)O2)O4)O3 [Bryostatin, bryostatin-1]",levels of biological markers as compared to normal levels (toxicity),"[1]; 24 hours after administering 10× the therapeutic dose, summary of Tables 5-7",did not demonstrate statistically significant differences in levels of biological markers as compared to normal levels
same,ALB (Albumin),[1]; [2],91.1 ± 0.8
same,ALP (Alkaline phosphatase),[1]; [2],62.8 ± 10.0
same,ALT (Alanine aminotransferase),[1]; [2],63.6 ± 3.6
same,AST (Aspartate aminotransferase),[1]; [2],75.2 ± 11.3
same,BUN (Blood urea nitrogen),[1]; [2],117.0 ± 4.5
same,CA (Calcium),[1]; [2],89.2 ± 6.1
same,CO2-LC (Bicarbonate),[1]; [2],91.1 ± 4.2
same,CREAT (Creatinine),[1]; [2],80.7 ± 3.5
same,GLU (Glucose),[1]; [2],77.6 ± 8.4
same,K (Potassium),[1]; [2],101.0 ± 3.6
same,NA (Sodium),[1]; [2],94.1 ± 1.9
same,TBILI (Total bilirubin),[1]; [2],78.2 ± 13.0
same,TPROT (Total protein),[1]; [2],91.3 ± 2.8
same,BA (Basophils),[1]; [3],300.0 ± 200.0
same,EO (Eosinophils),[1]; [3],375.0 ± 250.0
same,HCT (Hematocrit),[1]; [3],97.3 ± 21.9
same,Hb (Hemoglobin),[1]; [3],83.4 ± 19.5
same,LY (Lymphocytes),[1]; [3],134.4 ± 55.1
same,MCH (Mean corpuscular hemoglobin),[1]; [3],86.7 ± 4.9
same,MCHC (Mean corpuscular hemoglobin concentration),[1]; [3],85.1 ± 2.8
same,MCV (Mean corpuscular volume),[1]; [3],101.8 ± 2.8
same,MO (Monocytes),[1]; [3],133.3 ± 50.0
same,MPV (Mean platelet volume),[1]; [3],96.2 ± 2.4
same,NE (Neutrophils),[1]; [3],144.8 ± 55.1
same,PLT (Platelet count),[1]; [3],109.4 ± 43.9
same,RBC (Red Blood Cells),[1]; [3],95.3 ± 20.0
same,RDW (Red cell distribution width),[1]; [3],106.8 ± 6.2
same,WBC (White blood cells),[1]; [3],142.3 ± 57.3
same,"training-induced increases in dendritic spines, presynaptic vesicle concentration and nuclear export of HuC and HuD proteins",HuC and HuD proteins,enhanced
same,activation of alpha-secretase (sAPP generation),alpha-secretase,activate the alpha-secretase
same,protection against ASPD-induced apoptosis,Human primary neurons,protected against ASPD-induced apoptosis
same,membrane localization of neprilysin protein inhibited by Aβ,"human neprilysin; 1 μM oligomeric Aβ(1-42), 4 hours",recovers membrane localization of neprilysin protein inhibited by Aβ
same,neprilysin membrane localization,"human neprilysin; 1 hour, without Aβ",enhances neprilysin membrane localization
